Laboratory results: ChEMBL document CHEMBL5321200, “Discovery of the GSH responsive "Y-PROTACs" targeting ALK and CDK4/6 as a potential treatment for cancer” (Eur J Med Chem, 2023)
Calls of active or inactive are those of the source. The rule behind the calls is not given here.

Key:
[1] = target: T1, Protein cereblon/Cyclin-dependent kinase 4 (Homo sapiens, UniProt P11802+Q96SW2); experiment: PROTAC activity at CRBN/CDK4 in human NCI-H3122 cells assessed as induction of CDK4 protein degradation at 10 uM incubated for 24 hrs by Western blot analysis relative to control; format: cell-based
T1 sequence (P11802 2-303 limits assumed): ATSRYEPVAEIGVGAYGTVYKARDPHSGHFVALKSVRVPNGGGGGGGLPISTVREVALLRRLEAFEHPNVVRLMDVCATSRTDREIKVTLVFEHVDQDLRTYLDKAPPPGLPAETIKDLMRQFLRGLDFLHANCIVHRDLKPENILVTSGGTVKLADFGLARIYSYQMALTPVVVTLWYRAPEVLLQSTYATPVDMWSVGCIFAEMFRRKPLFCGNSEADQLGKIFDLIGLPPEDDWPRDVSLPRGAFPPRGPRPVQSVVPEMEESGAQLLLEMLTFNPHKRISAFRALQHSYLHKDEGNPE
T1 sequence (Q96SW2 whole entry partner): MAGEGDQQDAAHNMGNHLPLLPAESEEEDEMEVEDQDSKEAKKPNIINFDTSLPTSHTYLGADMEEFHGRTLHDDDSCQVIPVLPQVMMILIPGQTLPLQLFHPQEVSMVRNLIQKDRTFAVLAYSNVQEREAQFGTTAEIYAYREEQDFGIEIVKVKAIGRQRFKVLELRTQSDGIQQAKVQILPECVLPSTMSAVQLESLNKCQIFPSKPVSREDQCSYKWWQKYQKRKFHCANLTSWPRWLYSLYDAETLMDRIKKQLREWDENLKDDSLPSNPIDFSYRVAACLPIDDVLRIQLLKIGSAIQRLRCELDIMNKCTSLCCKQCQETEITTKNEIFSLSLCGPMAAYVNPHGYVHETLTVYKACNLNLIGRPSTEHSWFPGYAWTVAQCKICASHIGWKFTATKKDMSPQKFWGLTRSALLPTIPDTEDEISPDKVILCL

[2] = target: Protein cereblon/ALK tyrosine kinase receptor (Homo sapiens) (UniProt Q9UM73+Q96SW2); experiment: PROTAC activity at CRBN/ALK in human NCI-H2228 cells assessed as reduction in ALK protein level by Western blot analysis; format: cell-based
[3] = target: T1, Protein cereblon/Cyclin-dependent kinase 4; experiment: PROTAC activity at CRBN/CDK4 in human NCI-H2228 cells assessed as reduction in CDK4 protein level by Western blot analysis; format: cell-based
[4] = target: Protein cereblon/Cyclin-dependent kinase 6 (Homo sapiens) (UniProt Q00534+Q96SW2); experiment: PROTAC activity at CRBN/CDK6 in human NCI-H2228 cells assessed as reduction in CDK6 protein level by Western blot analysis; format: cell-based
[5] = target: T2, Protein cereblon/ALK tyrosine kinase receptor/Echinoderm microtubule-associated protein-like 4 (Homo sapiens) (UniProt Q9UM73+Q9HC35+Q96SW2); experiment: PROTAC activity at CRBN/EML4-ALK in human NCI-H3122 cells assessed as reduction in EML4-ALK fusion protein level at 0.1 to 20 uM incubated for 24 hrs in presence of GSH by Western blot analysis; format: cell-based; settings: dose 0.1-20 µM
T2 sequence (Q96SW2 whole entry partner, the tested form may be a part): as the sequence (Q96SW2 whole entry partner) above
T2 sequence (Q9HC35 whole entry partner, the tested form may be a part): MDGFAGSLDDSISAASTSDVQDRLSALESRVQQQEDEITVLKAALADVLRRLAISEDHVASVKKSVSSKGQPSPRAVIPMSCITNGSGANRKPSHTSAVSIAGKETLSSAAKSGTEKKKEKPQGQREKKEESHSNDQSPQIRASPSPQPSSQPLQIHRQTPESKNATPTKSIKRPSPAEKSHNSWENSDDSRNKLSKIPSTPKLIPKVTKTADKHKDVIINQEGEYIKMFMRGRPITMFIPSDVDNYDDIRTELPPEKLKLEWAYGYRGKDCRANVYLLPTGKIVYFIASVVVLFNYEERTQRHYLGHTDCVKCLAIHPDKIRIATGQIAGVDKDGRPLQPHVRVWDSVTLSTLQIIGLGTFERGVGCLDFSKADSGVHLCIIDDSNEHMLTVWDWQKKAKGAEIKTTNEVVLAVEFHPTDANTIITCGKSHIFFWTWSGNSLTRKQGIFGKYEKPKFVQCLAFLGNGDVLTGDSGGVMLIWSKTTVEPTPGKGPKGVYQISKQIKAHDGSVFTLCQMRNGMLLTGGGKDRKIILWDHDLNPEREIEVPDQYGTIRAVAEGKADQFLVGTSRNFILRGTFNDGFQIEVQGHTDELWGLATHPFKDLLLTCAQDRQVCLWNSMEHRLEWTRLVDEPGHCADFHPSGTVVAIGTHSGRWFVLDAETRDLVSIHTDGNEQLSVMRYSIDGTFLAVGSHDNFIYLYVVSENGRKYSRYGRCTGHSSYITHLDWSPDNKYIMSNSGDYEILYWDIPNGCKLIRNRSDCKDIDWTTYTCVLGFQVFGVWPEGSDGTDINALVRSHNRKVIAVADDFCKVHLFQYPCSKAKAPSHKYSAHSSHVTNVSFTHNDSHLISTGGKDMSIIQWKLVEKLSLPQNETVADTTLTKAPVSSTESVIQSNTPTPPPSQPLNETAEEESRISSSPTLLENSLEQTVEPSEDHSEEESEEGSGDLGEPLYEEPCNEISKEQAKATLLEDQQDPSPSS
T2 sequence (Q9UM73 19-1620 limits assumed): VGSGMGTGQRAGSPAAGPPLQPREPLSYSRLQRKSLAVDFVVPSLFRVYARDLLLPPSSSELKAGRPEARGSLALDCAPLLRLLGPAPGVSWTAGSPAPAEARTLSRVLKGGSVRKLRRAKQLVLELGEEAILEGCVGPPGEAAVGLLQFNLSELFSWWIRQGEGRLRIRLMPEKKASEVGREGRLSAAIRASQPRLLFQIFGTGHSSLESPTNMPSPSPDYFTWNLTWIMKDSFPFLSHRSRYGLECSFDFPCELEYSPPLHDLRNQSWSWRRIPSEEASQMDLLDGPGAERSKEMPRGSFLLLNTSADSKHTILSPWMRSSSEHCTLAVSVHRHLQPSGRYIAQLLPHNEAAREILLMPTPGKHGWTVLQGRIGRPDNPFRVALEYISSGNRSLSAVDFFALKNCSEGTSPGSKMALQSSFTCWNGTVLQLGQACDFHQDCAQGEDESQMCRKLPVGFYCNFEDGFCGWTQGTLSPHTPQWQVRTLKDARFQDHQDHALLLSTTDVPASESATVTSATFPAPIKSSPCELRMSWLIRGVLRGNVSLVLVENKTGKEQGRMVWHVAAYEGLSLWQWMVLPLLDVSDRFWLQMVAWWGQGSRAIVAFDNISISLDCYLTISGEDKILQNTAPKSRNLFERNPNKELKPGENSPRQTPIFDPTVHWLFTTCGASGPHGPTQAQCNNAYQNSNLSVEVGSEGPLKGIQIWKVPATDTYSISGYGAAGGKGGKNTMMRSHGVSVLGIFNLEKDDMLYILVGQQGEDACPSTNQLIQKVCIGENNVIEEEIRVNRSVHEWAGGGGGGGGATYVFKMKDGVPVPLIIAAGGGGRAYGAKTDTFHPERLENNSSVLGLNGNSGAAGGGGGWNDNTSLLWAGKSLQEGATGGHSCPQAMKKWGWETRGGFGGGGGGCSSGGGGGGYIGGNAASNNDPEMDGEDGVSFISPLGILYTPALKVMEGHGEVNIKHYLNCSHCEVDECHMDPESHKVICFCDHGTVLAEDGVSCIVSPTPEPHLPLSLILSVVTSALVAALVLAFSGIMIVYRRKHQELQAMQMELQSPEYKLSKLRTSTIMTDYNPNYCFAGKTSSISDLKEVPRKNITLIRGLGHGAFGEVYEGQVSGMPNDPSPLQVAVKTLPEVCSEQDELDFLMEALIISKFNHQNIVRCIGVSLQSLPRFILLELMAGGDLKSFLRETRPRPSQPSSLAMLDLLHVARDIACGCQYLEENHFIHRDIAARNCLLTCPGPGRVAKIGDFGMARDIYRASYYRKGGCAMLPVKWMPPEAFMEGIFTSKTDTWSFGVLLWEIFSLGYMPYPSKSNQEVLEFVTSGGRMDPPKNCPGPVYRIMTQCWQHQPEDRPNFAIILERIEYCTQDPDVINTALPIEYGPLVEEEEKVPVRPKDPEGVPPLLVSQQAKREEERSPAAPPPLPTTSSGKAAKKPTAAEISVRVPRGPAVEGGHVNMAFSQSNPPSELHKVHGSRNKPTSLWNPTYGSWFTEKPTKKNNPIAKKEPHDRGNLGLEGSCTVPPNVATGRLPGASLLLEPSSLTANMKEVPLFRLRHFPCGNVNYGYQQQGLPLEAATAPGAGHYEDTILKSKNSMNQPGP

[6] = target: ALK tyrosine kinase receptor (Homo sapiens) (UniProt Q9UM73); experiment: Inhibition of ALK (unknown origin) at 1 uM by LANCE Ultra TR-FRET assay relative to control
[7] = Stability of the compound in PBS buffer assessed as cleavage half life in presence of GSH by LC-MS/MS analysis; format: physicochemical; settings: PBS buffer with GSH
[8] = target: Protein cereblon/ALK tyrosine kinase receptor/Echinoderm microtubule-associated protein-like 4 (Homo sapiens, UniProt Q96SW2+Q9HC35+Q9UM73); experiment: PROTAC activity at CRBN/EML4-ALK in human NCI-H3122 cells assessed as reduction in EML4-ALK fusion protein level incubated for 24 hrs by Western blot analysis; format: cell-based
Chain of Protein cereblon/ALK tyrosine kinase receptor/Echinoderm microtubule-associated protein-like 4 (Q9UM73 whole entry, the tested form may be a part): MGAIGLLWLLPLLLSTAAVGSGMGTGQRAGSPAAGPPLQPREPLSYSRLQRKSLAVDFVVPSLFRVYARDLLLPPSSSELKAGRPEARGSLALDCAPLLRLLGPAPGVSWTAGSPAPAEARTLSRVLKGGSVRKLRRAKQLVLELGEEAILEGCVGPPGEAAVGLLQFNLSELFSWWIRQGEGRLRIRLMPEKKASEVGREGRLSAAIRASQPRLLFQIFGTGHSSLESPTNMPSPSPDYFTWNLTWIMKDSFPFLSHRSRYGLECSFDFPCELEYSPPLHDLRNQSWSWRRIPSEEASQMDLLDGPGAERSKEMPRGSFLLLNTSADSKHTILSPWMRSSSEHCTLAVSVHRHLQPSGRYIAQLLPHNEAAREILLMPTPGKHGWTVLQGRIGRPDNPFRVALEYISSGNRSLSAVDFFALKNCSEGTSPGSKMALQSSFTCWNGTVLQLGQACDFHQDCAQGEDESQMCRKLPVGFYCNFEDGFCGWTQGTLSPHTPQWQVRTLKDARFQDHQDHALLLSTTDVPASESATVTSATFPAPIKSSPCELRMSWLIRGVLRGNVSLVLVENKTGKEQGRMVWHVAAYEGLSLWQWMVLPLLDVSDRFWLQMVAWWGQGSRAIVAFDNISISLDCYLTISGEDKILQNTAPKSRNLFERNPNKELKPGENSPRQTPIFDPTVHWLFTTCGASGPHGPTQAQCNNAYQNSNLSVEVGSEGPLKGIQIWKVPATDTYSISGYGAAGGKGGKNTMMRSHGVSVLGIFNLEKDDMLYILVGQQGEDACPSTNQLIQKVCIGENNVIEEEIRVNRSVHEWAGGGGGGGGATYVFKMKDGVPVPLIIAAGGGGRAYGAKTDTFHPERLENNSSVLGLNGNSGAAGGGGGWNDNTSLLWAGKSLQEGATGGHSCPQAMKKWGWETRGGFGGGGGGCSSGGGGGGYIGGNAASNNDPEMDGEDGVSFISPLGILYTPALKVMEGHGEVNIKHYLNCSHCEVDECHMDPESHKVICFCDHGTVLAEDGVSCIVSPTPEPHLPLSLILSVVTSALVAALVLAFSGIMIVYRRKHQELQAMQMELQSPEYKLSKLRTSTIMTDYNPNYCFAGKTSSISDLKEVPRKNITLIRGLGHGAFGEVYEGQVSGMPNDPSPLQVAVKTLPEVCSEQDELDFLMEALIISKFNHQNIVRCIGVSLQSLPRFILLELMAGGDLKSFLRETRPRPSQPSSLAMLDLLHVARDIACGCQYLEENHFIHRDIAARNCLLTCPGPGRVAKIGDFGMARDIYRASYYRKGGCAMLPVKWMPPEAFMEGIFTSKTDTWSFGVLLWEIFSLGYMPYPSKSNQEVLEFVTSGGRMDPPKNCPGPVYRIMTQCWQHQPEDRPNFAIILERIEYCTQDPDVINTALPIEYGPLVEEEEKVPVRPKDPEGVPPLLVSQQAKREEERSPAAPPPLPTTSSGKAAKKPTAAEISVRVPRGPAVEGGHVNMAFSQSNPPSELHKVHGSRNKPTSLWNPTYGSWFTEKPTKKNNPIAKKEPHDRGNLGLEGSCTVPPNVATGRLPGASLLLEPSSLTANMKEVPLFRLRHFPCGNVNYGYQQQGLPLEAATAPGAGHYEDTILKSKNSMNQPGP
Chain of Protein cereblon/ALK tyrosine kinase receptor/Echinoderm microtubule-associated protein-like 4 (Q9HC35 whole entry, the tested form may be a part): as the sequence (Q9HC35 whole entry partner, the tested form may be a part) above
Chain of Protein cereblon/ALK tyrosine kinase receptor/Echinoderm microtubule-associated protein-like 4 (Q96SW2 whole entry, the tested form may be a part): as the sequence (Q96SW2 whole entry partner) above

[9] = target: T2, Protein cereblon/ALK tyrosine kinase receptor/Echinoderm microtubule-associated protein-like 4 (Homo sapiens); experiment: PROTAC activity at CRBN/EML4-ALK in human NCI-H2228 cells assessed as reduction in EML4-ALK fusion protein level incubated for 24 hrs by Western blot analysis; format: cell-based
[10] = target: T2, Protein cereblon/ALK tyrosine kinase receptor/Echinoderm microtubule-associated protein-like 4 (Homo sapiens); experiment: PROTAC activity at CRBN/EML4-ALK in human NCI-H3122 cells assessed as downregulation of phosphorylated STAT3 level by Western blot analysis; format: cell-based
[11] = target: T1, Protein cereblon/Cyclin-dependent kinase 4; experiment: PROTAC activity at CRBN/CDK4 in human NCI-H3122 cells assessed as downregulation of phosphorylated Rb level by Western blot analysis; format: cell-based
[12] = target: T1, Protein cereblon/Cyclin-dependent kinase 4; experiment: PROTAC activity at CRBN/CDK4 in human NCI-H3122 cells assessed as degradation of CDK4 protein at 5 uM pretreated with palbociclib for 4 hrs followed by compound addition and measured after 24 hrs by Western blot analysis; format: cell-based
[13] = system: NCI-H3122; experiment: Cell cycle arrest in human NCI-H3122 cells assessed as accumulation of cells at G0/G1 phase at 1.25 uM incubated for 24 hrs by propidium iodide staining based flow cytometric analysis (reference value: 48.68%); format: functional
[14] = system: NCI-H3122; experiment: Cell cycle arrest in human NCI-H3122 cells assessed as accumulation of cells at G0/G1 phase at 2.5 uM incubated for 24 hrs by propidium iodide staining based flow cytometric analysis (reference value: 48.68%); format: functional
[15] = system: NCI-H3122; experiment: Cell cycle arrest in human NCI-H3122 cells assessed as G2/M phase cells at 0.625 uM incubated for 24 hrs by propidium iodide staining based flow cytometric analysis (reference value: 20.89%); format: functional
[16] = system: NCI-H3122; experiment: Cell cycle arrest in human NCI-H3122 cells assessed as G2/M phase cells at 1.25 uM incubated for 24 hrs by propidium iodide staining based flow cytometric analysis (reference value: 20.89%); format: functional
[17] = system: NCI-H3122; experiment: Cell cycle arrest in human NCI-H3122 cells assessed as accumulation of cells at S phase at 0.625 uM incubated for 24 hrs by propidium iodide staining based flow cytometric analysis (reference value: 29.94%); format: functional
[18] = system: NCI-H3122; experiment: Cell cycle arrest in human NCI-H3122 cells assessed as accumulation of cells at S phase at 1.25 uM incubated for 24 hrs by propidium iodide staining based flow cytometric analysis (reference value: 29.94%); format: functional
[19] = system: NCI-H3122; experiment: Cell cycle arrest in human NCI-H3122 cells assessed as accumulation of cells at S phase at 2.5 uM incubated for 24 hrs by propidium iodide staining based flow cytometric analysis (reference value: 29.94%); format: functional
[20] = system: NCI-H3122; experiment: Induction of apoptosis in human NCI-H3122 cells assessed as early apoptotic cells at 0.312 uM incubated for 48 hrs by Annexin V-FITC/propidium iodide staining based flow cytometric analysis (reference value: 0.71%); format: functional
[21] = system: NCI-H3122; experiment: Induction of apoptosis in human NCI-H3122 cells assessed as early apoptotic cells at 0.625 uM incubated for 48 hrs by Annexin V-FITC/propidium iodide staining based flow cytometric analysis (reference value: 0.71%); format: functional
[22] = system: NCI-H3122; experiment: Induction of apoptosis in human NCI-H3122 cells assessed as necrotic cells at 0.625 uM incubated for 48 hrs by Annexin V-FITC/propidium iodide staining based flow cytometric analysis (reference value: 0.57%); format: functional
[23] = system: NCI-H3122; experiment: Induction of apoptosis in human NCI-H3122 cells assessed as necrotic cells at 2.5 uM incubated for 48 hrs by Annexin V-FITC/propidium iodide staining based flow cytometric analysis (reference value: 0.57%); format: functional
[24] = system: NCI-H3122; experiment: Induction of apoptosis in human NCI-H3122 cells assessed as total apoptotic cells at 2.5 uM incubated for 48 hrs by Annexin V-FITC/propidium iodide staining based flow cytometric analysis relative to control; format: functional
[25] = system: NCI-H3122; experiment: Inhibition of colony formation in human NCI-H3122 cells assessed as reduction in number of colonies measured after 10 days by crystal violet staining based microscopic analysis; format: functional, cell-based; settings: dose 0.039-0.312 µM, time 10.0 day
[26] = system: NCI-H3122; experiment: Antitumor activity against human NCI-H3122 cells xenografted in BALB/c nude mouse assessed as reduction in tumor volume at 75 mg/kg, IG administered once daily for 18 days and measured after 12 hrs of last dose; format: functional, organism-based; settings: time 444.0 hrs
[27] = Toxicity in BALB/c nude mouse xenografted with human NCI-H3122 cells assessed as effect on kidney function at 75 mg/kg, IG administered once daily for 18 days by H and E staining based assay; format: organism-based; settings: in vivo, po, 432 h, time 18 day
[28] = Toxicity in BALB/c nude mouse xenografted with human NCI-H3122 cells assessed as effect on heart function at 75 mg/kg, IG administered once daily for 18 days and measured after 12 hrs of last dose by H and E staining based assay; format: organism-based; settings: in vivo, po, 444 h
[29] = target: T1, Protein cereblon/Cyclin-dependent kinase 4; experiment: PROTAC activity at CRBN/CDK4 in human NCI-H3122 cells assessed as induction of CDK4 degradation at 5 uM pretreated with MG132 for 4 hrs followed compound addition and measured after 24 hrs by Western blot analysis; format: cell-based

Compound: CC(=O)c1c(C)c2cnc(Nc3ccc(N4CCN(CC(=O)NCCSSCCN(CC(=O)NCCNc5cccc6c5C(=O)N(C5CCC(=O)NC5=O)C6=O)C(=O)CCCCCCC(=O)N5CCC(c6cc(OC(C)C)c(Nc7ncc(Cl)c(Nc8ccccc8S(=O)(=O)C(C)C)n7)cc6C)CC5)CC4)cn3)nc2n(C2CCCC2)c1=O (centres undefined)
- Activity [1]: 70%
- Activity [2]: Active
- Activity [3]: Active
- Activity [4]: inactive
- Activity [5]: Active
- inhibition [6]: 96.4%
- half-life [7]: > 24 h
- EC50 [8]: 2830 nM
- Activity [9]: Active
- Activity [10]: Active
- Activity [11]: Active
- Activity [12]: inactive
- Activity [13]: 72.25%
- Activity [14]: 81.72%
- Activity [15]: 16.42%
- Activity [16]: 16.61%
- Activity [17]: 14.44%
- Activity [18]: 10.58%
- Activity [19]: 6.04%
- Activity [20]: 1.92%
- Activity [21]: 0.88%
- Activity [22]: 2.11%
- Activity [23]: 1.01%
- Activity [24]: 17.2%
- inhibition [25]: Dose-Dependent Effect
- Activity [26]: Active
- Activity [27]: Non-Toxic
- Activity [28]: Non-Toxic
- Activity [29]: inactive
